Measured values from the METLIN SMRT retention time set (Domingo-Almenara et al. 2019).

Assay: gradient 5% acetonitrile 3 min, to 50% in 2 min, to 85% in 15 min, held 3 min, 100 µL/min
Conditions: column: Zorbax Extend-C18 2.1 x 50 mm; eluents: water / acetonitrile, 0.1% formic acid
Method in brief: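 Using water and acetonitrile that each contained 0.1% formic acid, mixtures of ~100 pure standards were separated at 100 μL/min on a Zorbax Extend-C18 column (2.1 × 50 mm, 1.8 μm). The HPLC fed a quadrupole time-of-flight mass spectrometer working in positive and negative ionization mode, with dead and dwell volumes of 40 μL and 900 μL. Data were acquired over 3 months. Retention time was read from computationally picked adduct peaks after manual inspection of each.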

RP-LC retention time	SMILES
627 s	O=C(CCSCCc1ccccn1)Nc1c(F)cc(F)cc1Br
789 s	CC(C)C(=O)N1CCCc2ccc(NC(=O)c3ccco3)cc21
763 s	CSc1ccc(CNC(=O)C2CCCN(c3nccc(C)n3)C2)cc1 (stereo unspecified)
1050 s	CCCCc1nc(SCC(=O)Nc2nc(-c3ccc(Br)cc3)cs2)n[nH]1
1020 s	Cc1cc(C)cc(NC(=O)C2CCN(S(C)(=O)=O)c3cc(Cl)ccc3O2)c1 (stereo unspecified)
667 s	CCN1CCN(CCCNC(=O)c2ccc3nc(C(C)C)oc3c2)CC1
635 s	CC(C)NC(=O)N1CC(c2nc(-c3cccnc3)no2)C2(CCOCC2)C1 (stereo unspecified)
655 s	COc1cc(N)c(Cl)cc1C(=O)OCCCN1CCCCC1
585 s	O=C(NCc1cccnc1)c1ccc2c(c1)NC(=O)C1CCCCN21 (stereo unspecified)
1040 s	CCC(c1cccs1)N1C(=O)[C@H]2CN(S(=O)(=O)c3cc(F)cc(F)c3)C[C@H]2C1=O (stereo partly specified)
820 s	CC1=C(c2ccc(C(C)C)cc2)S(=O)(=O)N=C1N1CCC(C(=O)NCC2CCCO2)CC1 (stereo unspecified)
693 s	CN1CCN(c2ccc(-c3cccc(NC(=O)c4ccccc4F)c3)nn2)CC1
659 s	COc1cc2c(cc1OC)C(C(=O)N1CC(C)CC(C)C1)C(c1cccnc1)N(C)C2=O (stereo unspecified)
860 s	O=C(Nc1ccc2c(c1)OCO2)c1nnc(C(=O)N2CCCC(C(=O)NC3CCCC3)C2)s1 (stereo unspecified)
752 s	COc1ccccc1OCCNC(=O)CCc1nnc2c3cc(-c4ccc(F)cc4)nn3ccn12
603 s	O=C(Nc1ccc(N2CCOCC2)cc1)C1=CCN(Cc2ccc(F)cc2)CC1
572 s	Cc1cc(=O)oc2c(C)c(OCC(O)CN3CCN(c4ccccn4)CC3)ccc12 (stereo unspecified)
679 s	COCCN1CCn2cc(S(=O)(=O)Nc3ccccc3OC)cc2C1=O

RP-LC retention time	SMILES
555 s	CNC(=O)c1ccccc1C(=O)NCCc1nc(-c2cnccn2)no1
683 s	Cc1cccn2c(Nc3ccc4c(c3)OCCO4)c(-c3ccc(N4CCOCC4)cc3)nc12
743 s	COc1ccc(S(=O)(=O)NCc2cccnc2-c2ccc(C)cc2)cc1Cl
755 s	O=C(c1cnccn1)N1CCC(Oc2nc3ccccc3s2)CC1
750 s	O=C(Nc1ccc2c(c1)OCCO2)C1CCCN(c2ncnc3c2nc2n3CCCCC2)C1 (stereo unspecified)
643 s	O=C(NCCn1nc(-c2ccco2)ccc1=O)c1n[nH]c2ccccc12
619 s	COc1ccc(NC(=O)Cn2ccnc2-c2ccnc(N3CCSCC3)c2)cc1OC
606 s	COc1ccc(N2CCN(CCNC(=O)CCSc3ccccc3)CC2)cc1
825 s	CCOc1ccc(S(=O)(=O)N2CCCC(C(=O)NC(C)C)C2)cc1 (stereo unspecified)
785 s	CN1c2ccc(F)cc2C(=O)NC12CCN(C(=O)c1ccc(Cl)cc1)CC2
782 s	Cc1nn(-c2ccccc2)c(C)c1/C=C1\Oc2cc(O)ccc2C1=O
802 s	COc1ccc(CCNC(=O)CCc2nnc3c4cc(-c5ccc(C)c(C)c5)nn4ccn23)cc1OC
555 s	OC[C@@H]1CN(C2CCSCC2)C[C@H]1c1nc(-c2cccnc2)no1
660 s	Cc1ccccc1NC(=O)NC1CCN(C(=O)C2CC2)C1 (stereo unspecified)
766 s	Cc1cc(Cl)ccc1NC(=O)Cc1nnc(-c2ccc3ncccc3c2)o1
904 s	Cc1cc2c(=O)n(CC(=O)Nc3cccc(C(C)C)c3)ccc2s1
1100 s	COC(=O)c1sccc1NC(=O)Cn1cc(-c2nc(-c3ccc(Cl)cc3)no2)ccc1=O
984 s	CC(C)c1noc(-c2cc(=O)n(CC(=O)Nc3ccccc3F)c3ccccc23)n1
